Patent US20150094264A1, “USE OF OBESTATIN FOR MUSCLE REGENERATION” (UNIVERSIDADE DE SANTIAGO DE COMPOSTELA, priority 2012, published 2015)
Entries after “also recorded” stand apart in the source; their conditions may differ.

Legend:
[1] = tested on: AMPKa; assay: Dephosphorylation/inactivation of AMPKa [pAMPKa(T172)] by obestatin in L6E9 cells, immunoblot; format: cell-based, rat; conditions: obestatin 5 nM; L6E9 myoblasts (both cell models)
Method: (§1) FIG. 1. Activation of regulatory enzymes of mitogenesis and myogenesis by obestatin in L6E9 myoblasts and myotubes. Effect of obestatin on activity of regulatory enzymes of the mitogenic capacity (ERK 1/2), metabolic capacity (Akt and AMPK) and myogenic capacity (Akt and p38). Based on a dose-response study, the saturating dose for the maximum enzymatic activation is established for a concentration of 5 nM. […] Inactivation of AMPK is described in both cell models. The activation profile discovers bimodal characteristics for the action of obestatin: 1.—mitogenic activation in myoblasts; and, 2.—myogenic activation. The immunoblots are representative of 6 independent assays. […]
(§2) The tissue or cell samples were directly lysed in RIPA buffer [Tris-HCl (pH 7.2), 50 mM; NaCl, 150 mM; EDTA, 1 mM; NP-40, 1% (v/v); Sodium deoxycholate, 0.25% (w/v); protease inhibitors (Sigma); phosphatise inhibitors (Sigma)]. The lysates were clarified by centrifugation (14,000×g during 15 min at 4° C.) and the protein concentration was quantified using QuantiPro™ BCA assay kit (Sigma). […] The immunoreactive bands were detected by chemiluminescence (Pierce ECL Western Blotting Substrate; Thermo Scientific, Ill., USA). […]

[2] = tested on: L6E9 myotubes; assay: Activation of regulatory enzymes by obestatin in L6E9 myotubes, immunoblot; format: cell-based, rat; conditions: obestatin 5 nM
Method: as §1, §2

[3] = tested on: L6E9 myoblasts; assay: Mitogenic effect (number of cells) in L6E9 myoblasts in growth medium; format: cell-based, rat
Method: FIG. 2. Mitogenic effect of obestatin in L6E9 myoblasts. Mitogenic effect of different doses of obestatin (0.01-100 nM) in L6E9 myoblasts after 48 hours of stimulation in the presence of growth medium [GM: DMEN+10% FBS]. Co: initial number of cells. Control: number of cells after 48 hours in GM. GM+obestatin: number of cells after 48 hours of stimulation with obestatin in GM. The data are expressed as mean±standard error of 4 independent experiments (*, p<0.05).
The studies were performed based on the use of L6E9 rat myoblasts which were maintained in growth medium (GM) formed by DMEM (Dulbecco's Modified Eagle Medium) supplemented with 10% fetal bovine serum (FBS), 100 U/mL penicillin, and 100 U/mL streptomycin. For the differentiation, the cells were cultured at 80-100% of confluence in GM and it was replaced for differentiation medium (DM) formed by DMEM supplemented with 2% FBS, 100 U/mL penicillin, and 100 U/mL streptomycin during 6 days.
Dose-dependent studies performed on myoblasts with different obestatin concentrations (0.01-100 nM) in GM (proliferative conditions) show a maximum increase in the number of cells at 48 hours post-stimulation at a concentration of 5.0 nM obestatin (˜2.2-increased in relation to the control; FIG. 2).

[4] = tested on: damaged tibialis anterior of mouse; assay: Local administration in damaged tibialis anterior of mouse: myogenic markers, immunoblot; format: in vivo, Swiss mice; conditions: 300 nmol/kg weight local, 24 h intervals
Method: FIG. 8. Effect of the exogenous administration of obestatin in the damaged tibialis anterior of mouse (animal model) on the myogenic markers PAX-7 (A), MyoD (B), myogenin (C) and eMHC (D). Effect of the local exogenous administration of obestatin (300 nmol/kg/24 h) on early and later markers of myogenesis in damaged skeletal muscle tissue (tibialis anterior) in mice. The protein levels are expressed as % of the control obtained from the group of animals with administration of PBS (n=10 per group; mean±standard error; *, #, p<0.005).
The tissue or cell samples were directly lysed in RIPA buffer [Tris-HCl (pH 7.2), 50 mM; NaCl, 150 mM; EDTA, 1 mM; NP-40, 1% (v/v); Sodium deoxycholate, 0.25% (w/v); protease inhibitors (Sigma); phosphatise inhibitors (Sigma)]. The lysates were clarified by centrifugation (14,000×g during 15 min at 4° C.) and the protein concentration was quantified using QuantiPro™ BCA assay kit (Sigma). For immunoblot, equal amounts of protein were loaded which were fractionated in SOS-PAGE gels and transferred to nitrocellulose membranes. The immunoreactive bands were detected by chemiluminescence (Pierce ECL Western Blotting Substrate; Thermo Scientific, Ill., USA).
The mice (30 g; n=50) were maintained in 12 h light-darkness cycled with free access to standard diet and water. To induce the muscle damage, the tibialis anterior muscle (TA) was extracted under anaesthesia and subjected to three cycles of damage due to cold contact applying along the length of the muscle a metal bar cooled in liquid nitrogen. The damaged muscles were treated locally with obestatin injection (300 nmol/kg weight) or the corresponding vehicle (PBS; control) during the times indicated in 24 h intervals. The animals were assigned to one of the five experimental groups (n=10/group): 1) control group (saline); 2) obestatin group 48 h (obestatin 300 nmol/kg weight/24 h); 3) obestatin group 96 h (obestatin 300 nmol/kg weight/24 h); 4) obestatin group 168 h (obestatin 300 nmol/kg weight/24 h); and, obestatin group 240 h (obestatin 300 nmol/kg weight/24 h). After the indicated times, the mice were sacrificed by cervical dislocation under anaesthetic treatment and the tissues were extracted for immunoblot and immunohistochemical analyses.
The estimate of the therapeutic potential of obestatin as muscle regenerator agent was assessed in Swiss mice wherein muscle damage was induced in the tibialis anterior and obestatin (300 nmol/kg weight) or the corresponding vehicle (PBS) was later locally administered. The muscles were extracted and analysed by immunoblot 48, 96, 168 and 240 h after the treatment (n=5 per study time).

[5] = tested on: damaged tibialis anterior of mouse; assay: Histological (hematoxylin/eosin) analysis of muscle regeneration in damaged tibialis anterior of mouse; format: in vivo, Swiss mice; conditions: 300 nmol/kg weight local
Method: FIG. 9. Immunohistochemical analysis of the effect of the exogenous administration of obestatin on the capacity for muscle regeneration in the damaged tibialis anterior of mouse (animal model). The images shown are representative of the sections of the damaged tibialis anterior muscle (hematoxylin/eosin staining) under the local exogenous administration of obestatin (300 nmol/kg/24 h) or PBS (control) 48, 96, 168 and 240 h after inducing the damage. The images show the area of damage and regeneration at the indicated times.
FIG. 10. Quantitative analysis of the areas of the regenerative fibres of the tibialis anterior 96 and 168 hours after inducing the damage and exogenous administration of obestatin or PBS (control). The analysis corresponds to the area of regeneration myofibers in the tibialis anterior. For this purpose, an immunohistochemical analysis was performed by staining with hematoxylin/eosin and later quantification of the area of the myofiber by the use of the ImageJ64 program (n=10 per group; mean±standard error; *, p<0.005).
The muscle samples were mounted in a cold freezing medium [Tragacanth; Santa Cruz Biotechnology (CA, USA)] and frozen in a mixture of nitrogen-isopentane. The tissue sections were obtained by serial cuts with a cryostat (10 μm) and were mounted in adhesion slides for histochemistry (Marienfeld, Lauda-Konigshofen, Germany). The sections fixed were stained with hematoxylin/eosin. The quantification of the area of the regenerative myofibers was performed by using ImageJ64 analysis software.
The mice (30 g; n=50) were maintained in 12 h light-darkness cycled with free access to standard diet and water. To induce the muscle damage, the tibialis anterior muscle (TA) was extracted under anaesthesia and subjected to three cycles of damage due to cold contact applying along the length of the muscle a metal bar cooled in liquid nitrogen. The damaged muscles were treated locally with obestatin injection (300 nmol/kg weight) or the corresponding vehicle (PBS; control) during the times indicated in 24 h intervals. […]

obestatin
effect on AMPKa phosphorylation in T172 [pAMPKa(T172)] [1]: Inactivation; also recorded: dephosphorylates | activation dynamics of Akt, p38, ERK1/2 and AMPKa compared with myoblasts [2]: similar | maximum increase in the number of cells in relation to the control ([3]; 5.0 nM obestatin, 48 hours post-stimulation, GM (DMEM+10% FBS)): ~2.2 | obestatin concentration of maximum increase in the number of cells ([3]; range 0.01-100 nM, 48 hours, GM): 5.0 nM | expression times of each of the factors analysed (Pax-7, MyoD, myogenin, eMHC) [4]: acceleration | MyoD levels in treated muscles in relation to control muscles ([4]; 48, 96, 168 and 240 h): significantly higher | Pax-7 levels in treated muscles in relation to control muscles ([4]; 48, 96, 168 and 240 h): significantly higher | eMHC levels in treated muscles in relation to control muscles ([4]; 48, 96, 168 and 240 h): significantly higher | myogenin levels in treated muscles in relation to control muscles ([4]; 48, 96, 168 and 240 h): significantly higher | regenerative process (restructuring of the myofibers in the area of damage) in relation to controls ([5]; 48, 96, 168 and 240 h): acceleration | area of the regenerative fibres in the tibialis anterior in relation to controls ([5]; 96 and 168 h after the treatment): significant increase | calibre of the regenerative myofibers in relation to controls ([5]; hematoxylin/eosin sections): significant increase
